Measured values reported in patent US20220249447A1, “CF3-, OCF3-, SCF3-, and SF5-Containing Antibacterial Agents” (Purdue Research Foundation, priority 2019, published 2022).
In brackets after ≈: the same amount, converted by molar mass.

What was measured:
S. aureus = assay: MIC, broth microdilution, S. aureus; format: cell-based; details: Staphylococcus aureus
Protocol: (§1) Bacteria were cultured in cation-adjusted Mueller Hinton Broth (for strains in Tables 1-3) or Brain Heart Infusion broth (for Enterococcus faecium) or Tryptic Soy Broth (all other bacteria) in a 96-well plate at 37° C. for at least 20 hours. The MIC was classified as the lowest concentration where no visual growth of bacteria was observed. The minimum bactericidal concentration (MBC) was tested by spotting 4 μL from wells with no growth onto Tryptic Soy Agar (TSA) plates. Plates were incubated at 37° C. for at least 18 hours before recording the MBC.

MRSA ATCC 33592 = assay: MIC, broth microdilution, MRSA ATCC 33592; format: cell-based, methicillin-resistant S. aureus; details: Staphylococcus aureus
Protocol: All MRSA isolates were acquired from BEI Resources. The remaining bacteria were purchased from the American Type Culture Collection (ATCC).
as §1

[1] = test system: Neisseria gonorrhea strain 181; assay: MIC against Neisseria gonorrhea strain 181; format: cell-based
Protocol: as §1

In the case of `Cc1ccc(-c2nnc(NC(=O)c3ccc(SC(F)(F)F)cc3)o2)s1` [HSGN-258, N-(5-(5-methylthiophen-2-yl)-1,3,4-oxadiazol-2-yl)-4-((trifluoromethyl)thio)benzamide], the MIC (S. aureus) is reported as 2 µg/mL (≈ 5.19 µM) and the MIC (MRSA ATCC 33592) is reported as 2 µg/mL (≈ 5.19 µM).
Work on `O=C(Nc1nnc(C(F)(F)F)o1)c1ccc(S(F)(F)(F)(F)F)cc1` [HSGN-2141, 4-(pentafluoro-λ^6-sulfaneyl)-N-(5-(trifluoromethyl)-1,3,4-oxadiazol-2-yl)benzamide] yielded an MIC (S. aureus) of 32 µg/mL (≈ 83.5 µM) and an MIC (MRSA ATCC 33592) of 32 µg/mL (≈ 83.5 µM).
With `O=C(Nc1nnc(C2CCCC2)o1)c1ccc(S(F)(F)(F)(F)F)cc1` [HSGN-2143, N-(5-cyclopentyl-1,3,4-oxadiazol-2-yl)-4-(pentafluoro-16-sulfaneyl)benzamide] the MIC (S. aureus) was 2 µg/mL (≈ 5.22 µM) and the MIC (MRSA ATCC 33592) was 1 µg/mL (≈ 2.61 µM).
`O=C(Nc1nnc(-c2cccs2)o1)c1ccc(C(F)(F)F)s1` [HSGN-170] was tested, and the MIC (S. aureus) was 4 µg/mL (≈ 11.6 µM) and the MIC (MRSA ATCC 33592) was 2 µg/mL (≈ 5.79 µM).
`CN(C)[C@@H]1C(O)=C(C(N)=O)C(=O)[C@@]2(O)C(O)=C3C(=O)c4c(O)cccc4[C@@](C)(O)[C@H]3C[C@@H]12` [Tetracycline, reference compound] was tested, and the MIC [1] was 2 µg/mL (≈ 4.5 µM).
With `O=C(Nc1nnc(-c2ccccc2F)o1)c1ccc(SC(F)(F)F)cc1` [HSGN-2114, N-(5-(2-fluorophenyl)-1,3,4-oxadiazol-2-yl)-4-((trifluoromethyl)thio)benzamide] the MIC (S. aureus) was 0.5 µg/mL (≈ 1.3 µM) and the MIC (MRSA ATCC 33592) was 0.5 µg/mL (≈ 1.3 µM).
Work on `Cc1nnc(NC(=O)c2ccc(S(F)(F)(F)(F)F)cc2)o1` [HSGN-2140, N-(5-methyl-1,3,4-oxadiazol-2-yl)-4-(pentafluoro-λ^6-sulfaneyl)benzamide] yielded an MIC (S. aureus) of 1 µg/mL (≈ 3.04 µM) and an MIC (MRSA ATCC 33592) of 1 µg/mL (≈ 3.04 µM).
`O=C(Nc1nnc(-c2cccs2)o1)c1ccc(C(F)(F)F)o1` [HSGN-169, N-(5-(thiophen-2-yl)-1,3,4-oxadiazol-2-yl)-5-(trifluoromethyl)furan-2-carboxamide] showed an MIC (S. aureus) greater than 64 µg/mL and an MIC (MRSA ATCC 33592) greater than 64 µg/mL.
`CCCc1nnc(NC(=O)c2ccc(S(F)(F)(F)(F)F)cc2)o1` [HSGN-2142, 4-(pentafluoro-λ^6-sulfaneyl)-N-(5-propyl-1,3,4-oxadiazol-2-yl)benzamide] was tested, and the MIC (S. aureus) was 1 µg/mL (≈ 2.8 µM) and the MIC (MRSA ATCC 33592) was 0.5 µg/mL (≈ 1.4 µM).
`O=C(Nc1nnc(-c2ccc(F)cc2)o1)c1ccc(SC(F)(F)F)cc1` [HSGN-281, N-(5-(4-fluorophenyl)-1,3,4-oxadiazol-2-yl)-4-((trifluoromethyl)thio)benzamide] was tested, and the MIC (S. aureus) was 0.0625 µg/mL (≈ 0.163 µM) and the MIC (MRSA ATCC 33592) was 0.0625 µg/mL (≈ 0.163 µM).
`FC(F)(F)Sc1ccc(-n2cc(-c3nnc(-c4cccc(Cl)c4)o3)nn2)cc1` [HSGN-260] showed an MIC (S. aureus; 20 h) greater than 64 µg/mL and an MIC (MRSA ATCC 33592; 20 h) greater than 64 µg/mL.
`O=C(Nc1nnc(-c2cccs2)o1)c1cc(C(F)(F)F)n[nH]1` [HSGN-183, N-(5-(thiophen-2-yl)-1,3,4-oxadiazol-2-yl)-3-(trifluoromethyl)-1H-pyrazole-5-carboxamide] gave an MIC (S. aureus) greater than 64 µg/mL and an MIC (MRSA ATCC 33592) greater than 64 µg/mL.
`O=C(Nc1nnc(-c2ccc(Cl)cc2)o1)c1ccc(SC(F)(F)F)cc1` [HSGN-282, N-(5-(4-chlorophenyl)-1,3,4-oxadiazol-2-yl)-4-((trifluoromethyl)thio)benzamide] was tested, and the MIC (S. aureus) was 0.0625 µg/mL (≈ 0.156 µM) and the MIC (MRSA ATCC 33592) was 0.0625 µg/mL (≈ 0.156 µM).
For `O=C(Nc1nnc(-c2cccs2)o1)c1ccc(C(F)(F)F)cn1` [HSGN-172, N-(5-(thiophen-2-yl)-1,3,4-oxadiazol-2-yl)-5-(trifluoromethyl)picolinamide], the MIC (S. aureus) was 64 µg/mL (≈ 188 µM) and the MIC (MRSA ATCC 33592) was 32 µg/mL (≈ 94 µM).
In the case of `O=C(Nc1nnc(-c2cccs2)o1)c1ncc(C(F)(F)F)s1` [HSGN-168, N-(5-(thiophen-2-yl)-1,3,4-oxadiazol-2-yl)-5-(trifluoromethyl)thiazole-2-carboxamide], the MIC (S. aureus) is reported as 16 µg/mL (≈ 46.2 µM) and the MIC (MRSA ATCC 33592) is reported as 8 µg/mL (≈ 23.1 µM).
`O=C(Nc1nnc(-c2cccnc2)o1)c1ccc(SC(F)(F)F)cc1` [HSGN-206, N-(5-(pyridin-3-yl)-1,3,4-oxadiazol-2-yl)-4-((trifluoromethyl)thio)benzamide] gave an MIC (S. aureus) of 32 µg/mL (≈ 87.4 µM) and an MIC (MRSA ATCC 33592) of 32 µg/mL (≈ 87.4 µM).
Compound `CSc1ccc(C(=O)Nc2nnc(-c3cccs3)o2)cc1` [HSGN-251, 4-(methylthio)-N-(5-(thiophen-2-yl)-1,3,4-oxadiazol-2-yl)benzamide] has an MIC (S. aureus) of 16 µg/mL (≈ 50.4 µM) and an MIC (MRSA ATCC 33592) of 8 µg/mL (≈ 25.2 µM).
`O=C(Nc1nnc(-c2ccc(C(F)(F)F)cc2)o1)c1ccc(OC(F)(F)F)cc1` [HSGN-220, 4-(trifluoromethoxy)-N-(5-(4-(trifluoromethyl)phenyl)-1,3,4-oxadiazol-2-yl)benzamide] gave an MIC (S. aureus) of 0.125 µg/mL (≈ 0.3 µM) and an MIC (MRSA ATCC 33592) of 0.25 µg/mL (≈ 0.599 µM).
Work on `O=C(Nc1nnc(-c2ccccc2Cl)o1)c1ccc(SC(F)(F)F)cc1` [HSGN-2115, N-(5-(2-chlorophenyl)-1,3,4-oxadiazol-2-yl)-4-((trifluoromethyl)thio)benzamide] yielded an MIC (S. aureus) of 0.5 µg/mL (≈ 1.25 µM) and an MIC (MRSA ATCC 33592) of 0.5 µg/mL (≈ 1.25 µM).
For `O=C(Nc1nnc(-c2cccs2)o1)c1ccc(SC(F)F)cc1` [HSGN-250, 4-((difluoromethyl)thio)-N-(5-(thiophen-2-yl)-1,3,4-oxadiazol-2-yl)benzamide], the MIC (S. aureus) was 4 µg/mL (≈ 11.3 µM) and the MIC (MRSA ATCC 33592) was 2 µg/mL (≈ 5.66 µM).
With `O=C(Nc1nnc(-c2cccc(Cl)c2)o1)c1cccc(SC(F)(F)F)c1` [HSGN-2111, N-(5-(3-chlorophenyl)-1,3,4-oxadiazol-2-yl)-3-((trifluoromethyl)thio)benzamide] the MIC (S. aureus) was 1 µg/mL (≈ 2.5 µM) and the MIC (MRSA ATCC 33592) was 1 µg/mL (≈ 2.5 µM).
For `O=C(Nc1noc(-c2ccc(C(F)(F)F)cc2)n1)c1ccc(SC(F)(F)F)cc1` [HSGN-257, N-(5-(4-(trifluoromethyl)phenyl)-1,2,4-oxadiazol-3-yl)-4-((trifluoromethyl)thio)benzamide], the MIC (S. aureus) was greater than 64 µg/mL and the MIC (MRSA ATCC 33592) was greater than 64 µg/mL.
With `O=C(Nc1nnc(-c2cccc(Cl)c2)o1)c1ccc(OC(F)(F)F)c([N+](=O)[O-])c1` [HSGN-262, N-(5-(3-chlorophenyl)-1,3,4-oxadiazol-2-yl)-3-nitro-4-(trifluoromethoxy)benzamide] the MIC (S. aureus) was 16 µg/mL (≈ 37.3 µM) and the MIC (MRSA ATCC 33592) was 16 µg/mL (≈ 37.3 µM).
`COc1cc(Cl)cc(-c2nnc(NC(=O)c3ccc(SC(F)(F)F)cc3)o2)c1` [HSGN-266, N-(5-(3-chloro-5-methoxyphenyl)-1,3,4-oxadiazol-2-yl)-4-((trifluoromethyl)thio)benzamide] was tested, and the MIC (S. aureus) was 0.5 µg/mL (≈ 1.16 µM) and the MIC (MRSA ATCC 33592) was 0.5 µg/mL (≈ 1.16 µM).
Work on `O=C(Nc1nnc(-c2cccs2)o1)c1ccc(C(F)(F)F)nc1` [HSGN-171, N-(5-(thiophen-2-yl)-1,3,4-oxadiazol-2-yl)-6-(trifluoromethyl)nicotinamide] yielded an MIC (S. aureus) of 16 µg/mL (≈ 47 µM) and an MIC (MRSA ATCC 33592) of 8 µg/mL (≈ 23.5 µM).
With `O=C(Nc1nnc(-c2cccs2)o1)c1cccc(C(F)(F)F)n1` [HSGN-184, N-(5-(thiophen-2-yl)-1,3,4-oxadiazol-2-yl)-6-(trifluoromethyl)picolinamide] the MIC (S. aureus) was 16 µg/mL (≈ 47 µM) and the MIC (MRSA ATCC 33592) was 16 µg/mL (≈ 47 µM).
With `O=C(Nc1nnc(-c2ccccc2)o1)c1ccc(SC(F)(F)F)cc1` [HSGN-280, N-(5-phenyl-1,3,4-oxadiazol-2-yl)-4-((trifluoromethyl)thio)benzamide] the MIC (S. aureus) was 1 µg/mL (≈ 2.74 µM) and the MIC (MRSA ATCC 33592) was 1 µg/mL (≈ 2.74 µM).
With `N#Cc1cccc(-c2nnc(NC(=O)c3ccc(SC(F)(F)F)cc3)o2)c1` [HSGN-283, N-(5-(3-cyanophenyl)-1,3,4-oxadiazol-2-yl)-4-((trifluoromethyl)thio)benzamide] the MIC (S. aureus) was 0.0625 µg/mL (≈ 0.16 µM) and the MIC (MRSA ATCC 33592) was 0.0625 µg/mL (≈ 0.16 µM).
For `COc1ccc(-c2nnc(NC(=O)c3ccc(SC(F)(F)F)cc3)o2)cc1` [HSGN-207, N-(5-(4-methoxyphenyl)-1,3,4-oxadiazol-2-yl)-4-((trifluoromethyl)thio)benzamide], the MIC (S. aureus) was 16 µg/mL (≈ 40.5 µM) and the MIC (MRSA ATCC 33592) was 8 µg/mL (≈ 20.2 µM).
Work on `O=C(Nc1cnn(-c2ccccc2)c1)c1ccc(S(F)(F)(F)(F)F)cc1` [HSGN-2135, 4-(pentafluoro-λ^6-sulfaneyl)-N-(1-phenyl-1H-pyrazol-4-yl)benzamide] yielded an MIC (S. aureus) greater than 128 µg/mL and an MIC (MRSA ATCC 33592) greater than 128 µg/mL.
In the case of `O=C(Nc1nnc(-c2ccc(Cl)s2)o1)c1ccc(S(F)(F)(F)(F)F)cc1` [HSGN-2113, N-(5-(5-chlorothiophen-2-yl)-1,3,4-oxadiazol-2-yl)-4-(pentafluoro-λ^6-sulfaneyl)benzamide], the MIC (S. aureus) is reported as 0.25 µg/mL (≈ 0.579 µM) and the MIC (MRSA ATCC 33592) is reported as 0.25 µg/mL (≈ 0.579 µM).
In the case of `COc1ccc(Cl)cc1-c1nnc(NC(=O)c2ccc(SC(F)(F)F)cc2)o1` [HSGN-252, N-(5-(5-chloro-2-methoxyphenyl)-1,3,4-oxadiazol-2-yl)-4-((trifluoromethyl)thio)benzamide], the MIC (S. aureus) is reported as 2 µg/mL (≈ 4.65 µM) and the MIC (MRSA ATCC 33592) is reported as 1 µg/mL (≈ 2.33 µM).
In the case of `O=C(Nc1nnc(-c2cccs2)o1)c1ccc(OC(F)F)cc1` [HSGN-143, 4-(difluoromethoxy)-N-(5-(thiophen-2-yl)-1,3,4-oxadiazol-2-yl)benzamide], the MIC (S. aureus) is reported as 32 µg/mL (≈ 94.9 µM) and the MIC (MRSA ATCC 33592) is reported as 32 µg/mL (≈ 94.9 µM).
For `O=S(=O)(Nc1nnc(-c2cccc(Cl)c2)o1)c1ccc(SC(F)(F)F)cc1` [HSGN-256, N-(5-(3-chlorophenyl)-1,3,4-oxadiazol-2-yl)-4-((trifluoromethyl)thio)benzenesulfonamide], the MIC (S. aureus) was greater than 64 µg/mL and the MIC (MRSA ATCC 33592) was greater than 64 µg/mL.
In the case of `O=C(Nc1nnn(Cc2ccccc2)n1)c1ccc(S(F)(F)(F)(F)F)cc1` [HSGN-2136, N-(2-benzyl-2H-tetrazol-5-yl)-4-(pentafluoro-λ^6-sulfaneyl)benzamide], the MIC (S. aureus) is reported as greater than 128 µg/mL and the MIC (MRSA ATCC 33592) is reported as greater than 128 µg/mL.
Work on `O=C(Nc1nnc(-c2cccc(Cl)c2)o1)c1cccc(S(F)(F)(F)(F)F)c1` [HSGN-2112, N-(5-(3-chlorophenyl)-1,3,4-oxadiazol-2-yl)-3-(pentafluoro-λ^6-sulfaneyl)benzamide] yielded an MIC (S. aureus) of 0.5 µg/mL (≈ 1.17 µM) and an MIC (MRSA ATCC 33592) of 0.5 µg/mL (≈ 1.17 µM).
`O=S(=O)(Nc1nnc(-c2cccc(Cl)c2)o1)c1ccc(S(F)(F)(F)(F)F)cc1` [HSGN-255, N-(5-(3-chlorophenyl)-1,3,4-oxadiazol-2-yl)-4-(pentafluoro-δ6-sulfaneyl)benzenesulfonamide] gave an MIC (S. aureus) greater than 64 µg/mL and an MIC (MRSA ATCC 33592) greater than 64 µg/mL.
`O=C(Nc1nnc(-c2cccs2)o1)c1cnc(C(F)(F)F)nc1` [HSGN-190, N-(5-(thiophen-2-yl)-1,3,4-oxadiazol-2-yl)-2-(trifluoromethyl)pyrimidine-5-carboxamide] was tested, and the MIC (S. aureus) was 32 µg/mL (≈ 93.8 µM) and the MIC (MRSA ATCC 33592) was 32 µg/mL (≈ 93.8 µM).
